Some results are limits rather than exact numbers.

For experiment [1], the target named is FGFR1 (Homo sapiens (Human), UniProt P11362). The experiment in a line: FGFR Enzymatic Assay (FRET peptide phosphorylation), FGFR1. Particulars: FGFR1 IC50 (nM), pre-incubated for 4 hours.
In experiment [2] the target is FGFR4 (Homo sapiens (Human), UniProt P22455). In words: FGFR Enzymatic Assay (FRET peptide phosphorylation), FGFR4. Particulars: pre-incubated for 4 hours. It is filed as biochemical. The method, then: (§1) The inhibitor potency of the exemplified compounds was measured in an enzyme assay that measures peptide phosphorylation using FRET measurements to detect product formation. Inhibitors were serially diluted in DMSO and a volume of 0.5 μL was transferred to the wells of a 384-well plate.
(§2) The enzymes were purchased from Millipore or Invitrogen.
(§3) GraphPad prism3 was used to analyze the data.

Experiment [3] addresses FGFR3 enzyme (Homo sapiens (Human), UniProt P22607). In words: FGFR Enzymatic Assay (FRET peptide phosphorylation), FGFR3. It is filed as biochemical. The note with it: pre-incubated for 4 hours; for FGFR1/FGFR3 IC50 ratio / FGFR4/FGFR3 IC50 ratio: FGFR3 selectivity; for IC50: read-out: FGFR3 IC50. The method, then:
as §1, §3

For experiment [4], the target named is FGFR2 (Homo sapiens (Human), UniProt P21802). In words: FGFR Enzymatic Assay (FRET peptide phosphorylation), FGFR2. It is filed as biochemical. Particulars: pre-incubated for 4 hours. The method, then: as §1, §2, §3
Sequence of FGFR2 (P21802 22-821): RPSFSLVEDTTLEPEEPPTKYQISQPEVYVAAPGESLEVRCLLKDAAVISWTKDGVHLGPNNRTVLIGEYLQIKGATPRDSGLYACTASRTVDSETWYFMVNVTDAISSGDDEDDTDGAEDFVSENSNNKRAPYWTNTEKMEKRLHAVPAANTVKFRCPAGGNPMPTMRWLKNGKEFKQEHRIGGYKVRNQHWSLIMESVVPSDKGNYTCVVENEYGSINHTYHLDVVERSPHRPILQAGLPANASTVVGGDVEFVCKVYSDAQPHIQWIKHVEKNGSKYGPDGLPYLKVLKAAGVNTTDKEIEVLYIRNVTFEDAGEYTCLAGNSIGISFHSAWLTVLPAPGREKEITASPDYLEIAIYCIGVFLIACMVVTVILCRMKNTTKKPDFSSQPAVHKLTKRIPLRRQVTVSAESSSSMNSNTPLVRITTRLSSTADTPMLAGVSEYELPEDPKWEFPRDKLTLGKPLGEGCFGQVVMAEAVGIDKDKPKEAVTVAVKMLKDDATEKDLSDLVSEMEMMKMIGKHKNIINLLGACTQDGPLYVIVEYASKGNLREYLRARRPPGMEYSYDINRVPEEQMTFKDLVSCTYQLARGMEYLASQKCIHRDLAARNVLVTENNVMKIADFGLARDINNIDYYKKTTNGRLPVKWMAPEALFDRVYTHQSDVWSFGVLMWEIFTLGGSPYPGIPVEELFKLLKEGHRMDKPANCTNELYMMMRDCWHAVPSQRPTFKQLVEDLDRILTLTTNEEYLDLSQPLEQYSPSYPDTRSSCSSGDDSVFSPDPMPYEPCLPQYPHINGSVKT

Sequence of FGFR1 (P11362 22-822): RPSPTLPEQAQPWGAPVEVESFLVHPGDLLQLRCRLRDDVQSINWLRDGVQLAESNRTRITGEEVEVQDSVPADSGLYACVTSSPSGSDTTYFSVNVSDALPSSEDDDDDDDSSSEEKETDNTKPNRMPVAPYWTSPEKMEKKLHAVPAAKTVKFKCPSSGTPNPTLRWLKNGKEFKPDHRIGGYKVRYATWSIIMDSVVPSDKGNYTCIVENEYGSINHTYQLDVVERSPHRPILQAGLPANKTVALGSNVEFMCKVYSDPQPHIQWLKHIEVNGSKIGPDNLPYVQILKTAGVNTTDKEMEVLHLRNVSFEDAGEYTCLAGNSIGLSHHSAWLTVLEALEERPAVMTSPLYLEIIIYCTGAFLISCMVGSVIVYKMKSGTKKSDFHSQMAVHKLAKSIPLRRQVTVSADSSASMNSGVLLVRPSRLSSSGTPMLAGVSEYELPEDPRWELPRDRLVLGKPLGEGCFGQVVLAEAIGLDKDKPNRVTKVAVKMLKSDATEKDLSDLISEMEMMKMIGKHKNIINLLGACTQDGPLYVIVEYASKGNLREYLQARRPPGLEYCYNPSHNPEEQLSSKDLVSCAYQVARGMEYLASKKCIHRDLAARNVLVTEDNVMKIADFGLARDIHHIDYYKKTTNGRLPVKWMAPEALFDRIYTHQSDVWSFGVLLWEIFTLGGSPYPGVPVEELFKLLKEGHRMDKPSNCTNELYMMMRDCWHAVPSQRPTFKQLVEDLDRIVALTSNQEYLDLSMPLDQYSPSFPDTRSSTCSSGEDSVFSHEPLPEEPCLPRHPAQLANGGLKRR
Sequence of FGFR3 enzyme (P22607 23-806): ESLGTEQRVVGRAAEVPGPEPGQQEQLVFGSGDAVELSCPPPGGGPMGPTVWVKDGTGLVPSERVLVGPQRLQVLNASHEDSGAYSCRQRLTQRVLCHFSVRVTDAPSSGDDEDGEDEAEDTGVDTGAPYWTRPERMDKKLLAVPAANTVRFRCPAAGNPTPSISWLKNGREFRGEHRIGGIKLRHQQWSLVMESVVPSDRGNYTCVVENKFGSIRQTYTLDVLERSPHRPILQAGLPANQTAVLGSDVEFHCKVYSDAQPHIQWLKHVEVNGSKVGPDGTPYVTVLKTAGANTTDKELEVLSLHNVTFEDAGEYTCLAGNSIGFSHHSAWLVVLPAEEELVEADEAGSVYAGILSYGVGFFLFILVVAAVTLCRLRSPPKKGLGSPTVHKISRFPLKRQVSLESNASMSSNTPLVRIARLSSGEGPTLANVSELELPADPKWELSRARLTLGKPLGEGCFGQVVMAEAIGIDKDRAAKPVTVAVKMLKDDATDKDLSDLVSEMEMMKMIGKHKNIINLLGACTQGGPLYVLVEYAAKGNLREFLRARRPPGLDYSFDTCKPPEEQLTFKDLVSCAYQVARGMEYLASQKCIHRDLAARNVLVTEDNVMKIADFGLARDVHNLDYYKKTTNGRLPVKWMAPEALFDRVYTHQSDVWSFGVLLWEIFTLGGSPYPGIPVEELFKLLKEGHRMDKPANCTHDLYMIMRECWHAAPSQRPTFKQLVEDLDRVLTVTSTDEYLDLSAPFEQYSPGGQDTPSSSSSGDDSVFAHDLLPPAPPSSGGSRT
Sequence of FGFR4 (P22455 22-802): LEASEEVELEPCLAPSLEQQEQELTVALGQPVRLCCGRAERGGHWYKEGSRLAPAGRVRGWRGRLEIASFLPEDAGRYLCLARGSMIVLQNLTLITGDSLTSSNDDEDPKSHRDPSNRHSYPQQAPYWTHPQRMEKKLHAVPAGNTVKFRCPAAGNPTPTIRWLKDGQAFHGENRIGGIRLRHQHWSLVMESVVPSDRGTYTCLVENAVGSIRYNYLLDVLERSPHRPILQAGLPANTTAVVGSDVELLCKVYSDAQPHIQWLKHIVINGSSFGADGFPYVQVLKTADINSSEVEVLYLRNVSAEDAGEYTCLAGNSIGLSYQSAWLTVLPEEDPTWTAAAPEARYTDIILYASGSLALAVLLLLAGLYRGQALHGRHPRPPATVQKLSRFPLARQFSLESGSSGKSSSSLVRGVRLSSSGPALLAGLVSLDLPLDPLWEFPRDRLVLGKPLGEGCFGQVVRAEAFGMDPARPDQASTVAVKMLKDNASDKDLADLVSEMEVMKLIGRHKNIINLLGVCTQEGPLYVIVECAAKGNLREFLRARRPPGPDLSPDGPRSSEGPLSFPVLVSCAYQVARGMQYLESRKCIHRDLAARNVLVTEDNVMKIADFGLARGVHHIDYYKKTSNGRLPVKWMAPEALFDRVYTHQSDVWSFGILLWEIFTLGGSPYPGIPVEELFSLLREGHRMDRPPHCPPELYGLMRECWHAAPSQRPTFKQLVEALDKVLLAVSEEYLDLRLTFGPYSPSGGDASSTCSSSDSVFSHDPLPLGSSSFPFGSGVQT

With `COc1cc(OC)c(F)c(N2Cc3cnc(-c4cn(C5CCS(=O)(=O)C5)nc4C)cc3C3(CC3)C2=O)c1F` (stereo not drawn) [Example 54, 2′-(2,6-difluoro-3,5-dimethoxyphenyl)-6′-[1-(1,1-dioxidotetrahydro-3-thienyl)-3-methyl-1H-pyrazol-4-yl]-1′,2′-dihydro-3′H-spiro[cyclopropane-1,4′-[2,7]naphthyridin]-3′-one], the IC50 in experiment [1] was 30 to 200 nM; in experiment [2], 10 to 30 nM; in experiment [3], below 10 nM; in experiment [4], below 10 nM. Moreover, the “FGFR1/FGFR3 IC50 ratio” value in experiment [3] was above 5. In addition, the “FGFR4/FGFR3 IC50 ratio” value in experiment [3] is on record as above 1.
For the compound `COc1cc(OC)c(F)c(N2Cc3cnc(-c4cn(C)nc4C)cc3N(Cc3cnn(CC#N)c3)C2=O)c1F` [Example 125, 2-(4-((3-(2,6-difluoro-3,5-dimethoxyphenyl)-7-(1,3-dimethyl-1H-pyrazol-4-yl)-2-oxo-3,4-dihydropyrido[4,3-d]pyrimidin-1(2H)-yl)methyl)-1H-pyrazol-1-yl)acetonitrile], the 50% inhibitory concentration (IC50) was 30 to 200 nM in experiment [1], 30 to 200 nM in experiment [2], 10 to 30 nM in experiment [3] and below 10 nM in experiment [4]. Besides, the “FGFR1/FGFR3 IC50 ratio” value in experiment [3] is above 5. Besides, the “FGFR4/FGFR3 IC50 ratio” value in experiment [3] is above 5.
In the case of `CCN1C(=O)N(c2c(F)c(OC)cc(OC)c2F)Cc2cnc(-c3ccc(CN4CC[C@H](C#N)C4)cc3)cc21` [Example 25, (S)-1-(4-(3-(2,6-difluoro-3,5-dimethoxyphenyl)-1-ethyl-2-oxo-1,2,3,4-tetrahydropyrido[4,3-d]pyrimidin-7-yl)benzyl)pyrrolidine-3-carbonitrile], the half-inhibitory concentration (IC50) is 10 to 30 nM in experiment [1], 10 to 30 nM in experiment [2], below 10 nM in experiment [3] and below 10 nM in experiment [4]. Besides, the “FGFR1/FGFR3 IC50 ratio” value in experiment [3] was above 5. Further, the “FGFR4/FGFR3 IC50 ratio” value in experiment [3] is recorded as above 5.
For the compound `COc1cc(OC)c(F)c(N2Cc3cnc(-c4cn(C)nc4C)cc3N(c3ccc4ccncc4c3)C2=O)c1F` [Example 63, 3-(2,6-difluoro-3,5-dimethoxyphenyl)-7-(1,3-dimethyl-1H-pyrazol-4-yl)-1-(isoquinolin-7-yl)-3,4-dihydropyrido[4,3-d]pyrimidin-2(1H)-one], the half-inhibitory concentration (IC50) in experiment [1] was 30 to 200 nM; in experiment [2], 30 to 200 nM; in experiment [3], below 10 nM; in experiment [4], 10 to 30 nM. For the same compound, the “FGFR1/FGFR3 IC50 ratio” value in experiment [3] is on record as above 10. In experiment [3], the “FGFR4/FGFR3 IC50 ratio” value is on record as above 5.
As for `COc1cc(OC)c(F)c(N2Cc3cnc(-c4cn(C)nc4C)cc3N(c3cc(F)cc(C#N)c3)C2=O)c1F` [Example 78, 3-(3-(2,6-difluoro-3,5-dimethoxyphenyl)-7-(1,3-dimethyl-1H-pyrazol-4-yl)-2-oxo-3,4-dihydropyrido[4,3-d]pyrimidin-1(2H)-yl)-5-fluorobenzonitrile], the half-maximal inhibitory concentration (IC50) in experiment [1] is 30 to 200 nM; in experiment [2], 30 to 200 nM; in experiment [3], below 10 nM; in experiment [4], 10 to 30 nM. In addition, the “FGFR1/FGFR3 IC50 ratio” value in experiment [3] was above 5. Further, the “FGFR4/FGFR3 IC50 ratio” value in experiment [3] was above 3.
As for `CCn1cc(N2C(=O)N(c3c(F)c(OC)cc(OC)c3F)Cc3cnc(-c4cn(C)nc4C)cc32)cn1` [Example 131, 3-(2,6-difluoro-3,5-dimethoxyphenyl)-7-(1,3-dimethyl-1H-pyrazol-4-yl)-1-(1-ethyl-1H-pyrazol-4-yl)-3,4-dihydropyrido[4,3-d]pyrimidin-2(1H)-one], the 50% inhibitory concentration (IC50) in experiment [1] was 30 to 200 nM; in experiment [2], above 200 nM; in experiment [3] it was 10 to 30 nM; in experiment [4], 10 to 30 nM. Further, the “FGFR1/FGFR3 IC50 ratio” value in experiment [3] is above 3. Moreover, the “FGFR4/FGFR3 IC50 ratio” value in experiment [3] was above 10.

The record behind these values is patent US9708318B2, “Bicyclic heterocycles as FGFR4 inhibitors” (Incyte Corporation, priority 2015, dated 2017).
